Laboratory results reported in patent publication US20240294550A1, “8-OXA-3-AZABICYCLO[3.2.1]OCTANE COMPOUNDS OR SALT THEREOF, AND PREPARATION METHOD AND USE THEREOF” (LITTDD MEDICINES LTD, priority 2021, published 2024).
In brackets after ≈: the same amount, converted by molar mass. Like-named read-outs stand apart in the source and are kept apart here. One block for each compound: values may come before it.

Assays:
ATR = ATR (Homo sapiens (Human), UniProt Q13535); assay: ATR kinase inhibition assay (HTRF); type: biochemical; conditions: p53 substrate, ATP 150 nM
Sequence of ATR (Q13535 whole entry): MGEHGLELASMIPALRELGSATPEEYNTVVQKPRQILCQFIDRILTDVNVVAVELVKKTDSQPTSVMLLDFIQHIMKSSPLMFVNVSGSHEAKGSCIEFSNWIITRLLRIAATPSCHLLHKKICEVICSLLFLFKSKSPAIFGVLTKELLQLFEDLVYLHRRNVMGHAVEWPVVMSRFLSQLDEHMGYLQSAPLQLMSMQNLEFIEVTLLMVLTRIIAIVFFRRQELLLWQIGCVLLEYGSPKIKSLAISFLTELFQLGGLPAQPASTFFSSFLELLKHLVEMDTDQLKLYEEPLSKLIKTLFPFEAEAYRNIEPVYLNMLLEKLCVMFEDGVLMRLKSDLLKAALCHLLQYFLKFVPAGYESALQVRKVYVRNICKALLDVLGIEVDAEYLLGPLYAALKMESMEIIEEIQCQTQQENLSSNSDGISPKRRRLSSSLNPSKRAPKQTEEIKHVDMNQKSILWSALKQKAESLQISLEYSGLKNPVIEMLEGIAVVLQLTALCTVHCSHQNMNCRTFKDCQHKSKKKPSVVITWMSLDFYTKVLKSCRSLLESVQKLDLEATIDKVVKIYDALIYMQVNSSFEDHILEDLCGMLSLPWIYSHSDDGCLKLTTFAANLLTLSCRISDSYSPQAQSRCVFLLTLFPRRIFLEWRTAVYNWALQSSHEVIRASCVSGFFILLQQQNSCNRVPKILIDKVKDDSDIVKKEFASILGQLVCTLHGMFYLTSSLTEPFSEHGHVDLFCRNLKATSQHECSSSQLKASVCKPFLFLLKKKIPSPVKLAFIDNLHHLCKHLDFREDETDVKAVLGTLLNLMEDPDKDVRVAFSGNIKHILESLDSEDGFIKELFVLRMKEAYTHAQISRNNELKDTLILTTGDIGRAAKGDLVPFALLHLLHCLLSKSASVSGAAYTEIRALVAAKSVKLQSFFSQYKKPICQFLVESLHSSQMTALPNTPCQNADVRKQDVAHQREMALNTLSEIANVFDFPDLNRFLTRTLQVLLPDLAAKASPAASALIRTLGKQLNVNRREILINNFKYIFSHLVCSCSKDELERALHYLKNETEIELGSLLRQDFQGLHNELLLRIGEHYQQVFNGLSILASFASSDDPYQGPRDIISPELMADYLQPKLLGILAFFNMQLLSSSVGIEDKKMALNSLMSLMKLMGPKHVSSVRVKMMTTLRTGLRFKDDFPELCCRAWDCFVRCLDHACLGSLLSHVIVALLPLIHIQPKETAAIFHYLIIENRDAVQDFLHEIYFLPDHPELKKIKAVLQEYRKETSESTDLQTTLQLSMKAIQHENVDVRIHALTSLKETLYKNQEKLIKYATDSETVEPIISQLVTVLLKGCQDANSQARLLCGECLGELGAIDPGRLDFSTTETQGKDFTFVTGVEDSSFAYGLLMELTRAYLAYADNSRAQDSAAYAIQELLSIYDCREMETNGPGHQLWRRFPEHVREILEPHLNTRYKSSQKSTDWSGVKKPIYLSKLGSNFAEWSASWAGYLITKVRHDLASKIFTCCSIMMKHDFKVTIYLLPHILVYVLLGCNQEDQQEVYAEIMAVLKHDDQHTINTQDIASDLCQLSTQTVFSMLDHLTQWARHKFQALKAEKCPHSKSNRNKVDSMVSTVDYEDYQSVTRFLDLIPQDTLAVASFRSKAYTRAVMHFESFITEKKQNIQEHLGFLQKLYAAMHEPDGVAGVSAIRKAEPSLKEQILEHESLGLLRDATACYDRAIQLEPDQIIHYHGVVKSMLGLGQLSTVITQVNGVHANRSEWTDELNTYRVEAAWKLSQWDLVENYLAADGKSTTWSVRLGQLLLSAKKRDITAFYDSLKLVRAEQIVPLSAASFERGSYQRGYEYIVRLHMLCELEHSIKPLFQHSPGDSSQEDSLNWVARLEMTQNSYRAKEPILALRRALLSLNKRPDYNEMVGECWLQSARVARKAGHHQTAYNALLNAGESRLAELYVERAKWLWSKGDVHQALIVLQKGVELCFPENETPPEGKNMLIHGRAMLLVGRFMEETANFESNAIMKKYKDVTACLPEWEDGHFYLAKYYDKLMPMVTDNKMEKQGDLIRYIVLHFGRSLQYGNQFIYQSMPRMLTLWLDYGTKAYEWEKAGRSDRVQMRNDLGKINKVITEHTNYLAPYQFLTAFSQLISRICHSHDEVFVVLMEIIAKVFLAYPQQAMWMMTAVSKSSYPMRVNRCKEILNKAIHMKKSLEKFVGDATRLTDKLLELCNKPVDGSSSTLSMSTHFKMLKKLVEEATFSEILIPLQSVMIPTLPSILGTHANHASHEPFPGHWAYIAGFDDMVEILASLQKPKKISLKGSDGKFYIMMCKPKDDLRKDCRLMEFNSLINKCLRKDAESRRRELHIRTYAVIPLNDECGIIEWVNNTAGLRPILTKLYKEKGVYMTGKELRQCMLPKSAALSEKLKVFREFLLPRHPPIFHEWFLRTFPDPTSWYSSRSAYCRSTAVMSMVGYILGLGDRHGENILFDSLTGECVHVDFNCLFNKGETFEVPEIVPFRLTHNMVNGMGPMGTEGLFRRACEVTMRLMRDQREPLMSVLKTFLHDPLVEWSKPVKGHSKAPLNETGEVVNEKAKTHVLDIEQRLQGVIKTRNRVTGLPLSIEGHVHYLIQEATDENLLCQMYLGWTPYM
Sequence of ATR (Q8WXE1 whole entry partner): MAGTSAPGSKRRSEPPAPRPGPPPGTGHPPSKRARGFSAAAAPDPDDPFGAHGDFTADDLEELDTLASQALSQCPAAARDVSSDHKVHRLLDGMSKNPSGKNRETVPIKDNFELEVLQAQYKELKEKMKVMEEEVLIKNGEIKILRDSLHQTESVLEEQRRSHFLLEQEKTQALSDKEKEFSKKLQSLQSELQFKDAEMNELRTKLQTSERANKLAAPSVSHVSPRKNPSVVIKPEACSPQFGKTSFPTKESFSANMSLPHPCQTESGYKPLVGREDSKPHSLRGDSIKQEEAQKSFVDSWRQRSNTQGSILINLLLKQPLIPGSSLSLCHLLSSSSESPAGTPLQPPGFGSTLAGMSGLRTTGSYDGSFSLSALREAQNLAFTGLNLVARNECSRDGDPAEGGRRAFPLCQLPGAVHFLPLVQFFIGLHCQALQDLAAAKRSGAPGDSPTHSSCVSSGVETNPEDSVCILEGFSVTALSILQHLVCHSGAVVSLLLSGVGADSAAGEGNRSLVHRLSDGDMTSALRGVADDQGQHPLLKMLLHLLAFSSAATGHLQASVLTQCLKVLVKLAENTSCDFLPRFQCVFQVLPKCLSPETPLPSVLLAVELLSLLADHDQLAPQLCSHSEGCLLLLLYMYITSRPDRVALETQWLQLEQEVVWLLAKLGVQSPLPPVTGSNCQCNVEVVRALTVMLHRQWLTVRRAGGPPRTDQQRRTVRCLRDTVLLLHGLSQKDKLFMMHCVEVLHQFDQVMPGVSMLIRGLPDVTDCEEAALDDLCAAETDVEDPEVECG
Procedure: This experiment adopted Homogeneous time-resolved fluorescence technology (HTRF®) of Cisbio Company for assay.
Experiment method: buffers were prepared as follows:
Preparation of solutions of the test compounds: The example compounds shown in the table below were prepared into solutions using DMSO as solvent, the stock solution typically being 10 mM. The maximum starting concentration in this experiment was 3 μM, DMSO 3-fold serial dilutions for concentrations, the serially diluted solution was added to each well of the corresponding 384-well plate (geriner bio-one, Cat #784075) to give final concentrations of 3000, 1000, 333, 111, 37, 12.3, 4.12, 1.37, 0.457, 0.152 nM, respectively, and the corresponding amount of DMSO was added to the additional wells to be used as negative or positive control wells, respectively.
The enzyme and substrate were separately dissolved and diluted in two tubes with the buffer prepared above at the following concentrations:
5 μL of the ATR protein solution from tube A was added to the compound-containing wells and the negative control wells in the assay plates using an electric multichannel pipettor, and the same volume of the prepared buffer (medium only, no enzyme) was added to the positive control wells. The plates were centrifuged for one minute at 1000 rpm, and then placed in an incubator at 25° C. for 15 minutes. 5 μL of the substrate mix solution from tube B was added to the positive control well, negative control well and the compound-containing well of the assay plates in the same manner, centrifuged and incubated at 25° C. for 90 minutes.
During the reaction, after ATR phosphorylated the substrate p53, two antibodies were added. Among them, anti-phospho-p53-Eu, as an energy donor, can specifically bind to the phosphorylation site of p53, while anti-GST-d2, as an energy receptor, can specifically bind to the GST-tagged p53. Upon excitation by a laser with certain wavelength (the excitation wavelength in this experiment is 340 nm), the energy donor can emit emission light of 615 nm, and when the energy donor and the energy receptor are close enough in space (that is, two antibodies are connected to p53 at the same time), energy transfer can occur between the energy donor and the energy receptor, so that the energy receptor can emit emission light of 665 nm. The two emission lights were detected by a plate reader, and the ratio of the signals at 665 nm and 615 nm was calculated. The IC50 of the samples tested can be obtained by plotting and calculation.
10 μL per well of the detection solution was added to the positive control, negative control and compound wells of the assay plate using an electric multichannel pipette, centrifuged and incubated overnight at 4° C., and read with the plate reader Envision 2104.
Compound inhibition rate was calculated using interpolation. The mean values of the positive and negative controls were calculated respectively, and the following formula was used to calculate the inhibition rates of the compounds:
Inhibition rate Minimum response+(Compound concentration ^Curve slope)*(Maximum response−Minimum response)/(Compound concentration^Curve slope+Half inhibition concentration ^Curve slope)
The IC50 value of each compound to enzyme activity was obtained.

LOVO cells = assay: Cell proliferation assay (CellTiter-Glo); type: cell-based; conditions: Homo sapiens, 96 hours
Procedure: The cell proliferation inhibition effect of the compound of the invention was tested using CellTiter-Glo™ cell viability assay kit. This kit uses luciferase as the detector. During the luminescence process, the luciferase requires the participation of ATP. CellTiter-Glo™ reagent was added to the cell culture medium, and the luminescence value was measured. The light signal is proportional to the amount of ATP present in the system, and ATP positively correlates with the number of viable cells present, thus the cell proliferation activity is measured.
Cell culture and seeding: LOVO cells in logarithmic growth phase (human colon carcinoma cells) (ATCC CCL-229) were harvested and counted using a platelet counter. Trypan blue exclusion method was used to detect the cell viability to ensure that the cell viability was above 90%. 90 μL of cell suspension (RPMI1640+10% fetal bovine serum) was added to a 96-well transparent flat-bottom black-wall plate (Thermo, 165305) respectively, and the cell concentration was adjusted to 3000/well/90 μl. Cells in the 96-well plate were incubated overnight at 37° C., 5% CO2 with 95% humidity (Thermo, Model 3100 Series).
Firstly, DMSO was used as the solvent to prepare 10 mM mother solution of the test compounds, and then PBS was used to dilute 100 times to prepare a solution of 10 times of final concentration, the highest concentration was 100 μM. 10 μL solution of the test compounds was added to each well of the 96 well plate inoculated with cells, namely the solution was further diluted 10 times to reach the final concentration of 10 μM. Starting from 10 μM, the final concentration of the test compound was 3-fold serially diluted, with 9 concentrations in total with 3 triplicates for each concentration. The 96 well plates with the test compounds and cells were incubated at 37° C., 5% CO2 and 95% humidity for 96 hours, and then CellTiter Glo analysis was performed.
CellTiter-Glo Reagents (CellTiter Glo R Luminescent Cell Viability Assay, Promega, G7572) were melted and the 96-well plates were equilibrated to room temperature for 30 minutes. An equal volume of CellTiter-Glo solution was added to each well, and the cells were lysed by shaking on the fixed orbit shaker for 5 minutes. The assay plates were left at room temperature for 20 minutes to stabilize the luminescence signal, and the luminescence signals were read using the SpectraMax multi-labeled microplate detector (MD, M3).
Data were analyzed using GraphPad Prism 7.0 software, fitted with non-linear S-curve regression to derive the dose-response curves, and IC50 values were calculated therefrom.
Cell survival rate (%)=(LumDrug to be tested−LumCulture medium control)/(LumCell control−LumCulture medium control)×100%

[1] = Metabolic stability in human liver microsomes; type: in vitro ADME; conditions: for half-life at 1 μM: 1 μM compound; for microsomal CLint at 1 μM: read-out: CLint(mic)
Procedure: (§1) Drug-like Properties: Concepts, Structure Design and Methods: from ADME to Toxicity Optimization. […] Screen. […] After incubation for appropriate time (such as 5, 10, 20, 30 and 60 minutes), samples were collected, and an appropriate termination solution (glacial acetonitrile containing 200 ng/mL tolbutamide and 200 ng/mL labetalol (i.e. acetonitrile at 4° C.)) was added to stop the reaction. Sample treatment (n=1): each appropriate sample was added, vortexed and centrifuged at high speed. The supernatants were collected, and detected the substrate by HPLC-MS/MS. The peak area at the 0 min was set as 100%. The peak areas at other time points were converted to percentages of the remaining amount. The natural logarithms of the percentage of remaining amount at each time point was plotted against the incubation time, and the slope (−k) was calculated. Then, Clint (μL/min/mg) and half-life (T½, min) of the compounds were calculated following the equation: Inherent clearance rate (Clint)=(k*Volume of incubation solution)/Mass of liver microsomes.

[2] = Metabolic stability in mouse liver microsomes; type: in vitro ADME, CD-1 mice; conditions: for half-life at 1 μM: CD-1, 1 μM compound; for microsomal CLint at 1 μM: CD-1, read-out: CLint(mic)
Procedure: as §1

[3] = Pharmacokinetic (PK) assay in mice; type: in vivo; conditions: CD-1 mice; for half-life / Vd / bioavailability / C0 / AUC(0-t) / Cmax: mouse, plasma; for Vd: read-out: Vss; for bioavailability: Po dose 5 mg/kg vs IV dose 1 mg/kg; for AUC(0-t): read-out: AUC0-24 h
Procedure: The PK of each compound was determined as follows: 6 CD-1 mice (obtained from Shanghai Lingchang Biotechnology Co., Ltd.) were divided into two groups, 3 mice in each group. […] Blood samples were collected from saphenous vein of lower leg in each group at 0, 0.083, 0.25, 0.5, 1, 2, 4, 6, 8 and 24 h after administration. Approximately 40 μL of the blood samples were collected in anticoagulant tubes containing EDTA-K2. Immediately after collection, the tubes were inverted at least 5 times to ensure adequate mixing, and then placed on ice. The blood samples collected at each time point were centrifuged at 4° C., 8000 rpm for 5 minutes to obtain plasma. Another 1.5 mL centrifuge tube was marked with the compound name, animal number, and time point, and the plasma was transferred to this tube. The plasma was stored at −80° C. until analysis.
Compound concentrations in plasma were determined by UPLC-MS/MS method, and the pharmacokinetic parameters were calculated by Phoenix WinNolin 6.4 pharmacokinetic software on the obtained data.

[4] = Equilibrium solubility in FaSSIF; type: physicochemical; conditions: thermodynamic from solid; FaSSIF pH 6.5, shaken 24 hours
Procedure: The compound powder was weighed into a volumetric flask, 450 μL of pH 6.5 FaSSIF solution was added to obtain a supersaturated suspension, the samples were vortexed for at least 2 minutes, and the volumetric flasks were shaken on a vibrating screen at 800 rpm for 24 hours, and then centrifuged at 4000 rpm for 20 minutes. The compressed filtrate was added to a HPLC system, and the concentrations were calculated by a standard curve method.

SMILES: C[C@@H]1COCCN1c1cc(N2CC3CCC(C2)O3)nn2c(-c3cc[nH]n3)ncc12 [Example 3, 3-(4-((R)-3-methylmorpholino)-7-(1H-pyrazol-3-yl)imidazo[1,5-b]pyridazin-2-yl)-8-oxa-3-azabicyclo[3.2.1]octane]
IC50 (ATR): 5.9 nM
IC50 (LOVO cells): 67 nM
CL_obs ([3]; IV dose 1 mg/kg): 10.0 mL/min/kg
half-life ([3]; IV dose 1 mg/kg): 7.56 h
Vd ([3]; IV dose 1 mg/kg): 1.03 L/kg
half-life ([3]; Po dose 5 mg/kg): 3.99 h
bioavailability [3]: 77.5%
C0 ([3]; IV dose 1 mg/kg): 2860 ng/mL
AUC(0-t) ([3]; IV dose 1 mg/kg): 1650 ng·h/mL
Cmax ([3]; Po dose 5 mg/kg): 3150 ng/mL
AUC(0-t) ([3]; Po dose 5 mg/kg): 6460 ng·h/mL
solubility at 24 h [4]: 1140 µg/mL (≈ 2890 µM)

SMILES: C[C@@H]1CN(c2cc(N3CC4CCC(C3)O4)nn3c(-c4cc[nH]n4)ncc23)C[C@H](C)O1 [Example 16, 3-(4-(cis-2,6-dimethylmorpholino)-7-(1H-pyrazol-3-yl)imidazo[1,5-b]pyridazin-2-yl)-8-oxa-3-azabicyclo[3.2.1]octane]
IC50 (ATR): 21.9 nM
IC50 (LOVO cells): 310 nM

SMILES: CC(=O)N1CCN(c2cc(N3C[C@H]4CC[C@@H](C3)O4)nc3c2cnn3-c2cc[nH]n2)[C@H](C)C1 [Example 34, 1-((R)-4-(6-((1R,5S)-8-oxa-3-azabicyclo[3.2.1]octan-3-yl)-1-(1H-pyrazol-3-yl)-1H-pyrazolo[3,4-b]pyridin-4-yl)-3-methylpiperazin-1-yl)ethan-1-one]
IC50 (ATR): 7.6 nM
IC50 (LOVO cells): 424 nM

SMILES: Cn1nccc1-c1cc(N2CC3CCC(C2)O3)nc2c(-c3cc[nH]n3)cnn12 [Example 26, 3-(7-(1-methyl-1H-pyrazol-5-yl)-3-(1H-pyrazol-3-yl)pyrazolo[1,5-a]pyrimidin-5-yl)-8-oxa-3-azabicyclo[3.2.1]octane]
IC50 (ATR): 57.7 nM
IC50 (LOVO cells): 1270 nM

Continued, values first:

IC50 (ATR): 8.2 nM
IC50 (LOVO cells): 384 nM
half-life at 1 μM [1]: > 2.42 h
Remain % (T = 60 min) [1]: 77.1%
microsomal CLint at 1 μM [1]: < 9.6 µL/min/mg
half-life at 1 μM [2]: 1.12 h
microsomal CLint at 1 μM [2]: 20.5 µL/min/mg
Remain % (T = 60 min) [2]: 56.6%
CL_obs ([3]; IV dose 1 mg/kg): 6.15 mL/min/kg
half-life ([3]; IV dose 1 mg/kg): 3.45 h
Vd ([3]; IV dose 1 mg/kg): 0.75 L/kg
half-life ([3]; Po dose 5 mg/kg): 2.58 h
bioavailability [3]: 69%
C0 ([3]; IV dose 1 mg/kg): 2180 ng/mL
AUC(0-t) ([3]; IV dose 1 mg/kg): 2700 ng·h/mL
Cmax ([3]; Po dose 5 mg/kg): 3020 ng/mL
AUC(0-t) ([3]; Po dose 5 mg/kg): 9330 ng·h/mL
SMILES: C[C@@H]1COCCN1c1cc(N2CC3CCC(C2)O3)nc2c1cnn2-c1cc[nH]n1 [Example 5, 3-(4-((R)-3-methylmorpholino)-1-(1H-pyrazol-3-yl)-1H-pyrazolo[3,4-b]pyridin-6-yl)-8-oxa-3-azabicyclo[3.2.1]octane]

IC50 (ATR): 40.3 nM
IC50 (LOVO cells): 479 nM
SMILES: C[C@@H]1COCCN1c1cc(N2CC3CCC(C2)O3)nn2c(-c3cc[nH]n3)cnc12 [Example 2, 3-(8-((R)-3-methylmorpholino)-3-(1H-pyrazol-3-yl)imidazo[1,2-b]pyridazin-6-yl)-8-oxa-3-azabicyclo[3.2.1]octane]

IC50 (ATR): 3.9 nM
IC50 (LOVO cells): 158 nM
SMILES: C[C@@H]1CC(F)(F)CCN1c1cc(N2CC3CCC(C2)O3)nn2c(-c3cc[nH]n3)ncc12 [Example 31, 3-(4-((R)-4,4-difluoro-2-methylpiperidin-1-yl)-7-(1H-pyrazol-3-yl)imidazo[1,5-b]pyridazin-2-yl)-8-oxa-3-azabicyclo[3.2.1]octane]

IC50 (ATR): 13.2 nM
IC50 (LOVO cells): 97 nM
half-life at 1 μM [1]: > 2.42 h
Remain % (T = 60 min) [1]: 74.8%
microsomal CLint at 1 μM [1]: < 9.6 µL/min/mg
half-life at 1 μM [2]: 0.56 h
microsomal CLint at 1 μM [2]: 41.3 µL/min/mg
Remain % (T = 60 min) [2]: 30.7%
SMILES: c1cc(-c2ncc3c(N4CC5CCC(C4)O5)cc(N4CC5CCC(C4)O5)nn23)n[nH]1 [Example 6, 3-(4-(8-oxa-3-azabicyclo[3.2.1]octan-3-yl)-7-(1H-pyrazol-3-yl)imidazo[1,5-b]pyridazin-2-yl)-8-oxa-3-azabicyclo[3.2.1]octane]

IC50 (ATR): 22 nM
IC50 (LOVO cells): 186 nM
SMILES: C[C@H]1COCCN1c1cc(N2CC3CCC(C2)O3)nn2c(-c3cc[nH]n3)ncc12 [Example 15, 3-(4-((S)-3-methylmorpholino)-7-(1H-pyrazol-3-yl)imidazo[1,5-b]pyridazin-2-yl)-8-oxa-3-azabicyclo[3.2.1]octane]
